From patent publication US7419969B2 (Bristol-Myers Squibb Company, priority 2004, dated 2008)
pIC50: −log10 of the molar value.

Molecular target: T1, HIV-integrase (Human immunodeficiency virus type 1 group M subtype B, UniProt P04585)
T1 construct: Recombinant integrase (0.26 ng) was incubated with the beads
Experiment: in-vitro activity against HIV-integrase (HIV Integrase Inhibition, SPA bead assay)
Format: biochemical
Details: recombinant integrase, activity class
How it was run: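 Recombinant integrase (0.26 ng) pre-bound for 90 min at 37 °C to biotinylated substrate DNA on streptavidin SPA beads, then washed. Inhibitors added with 33P-labelled target DNA; reaction stopped with 10 mM EDTA. Scintillation CPM taken as integration signal.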

Structure (SMILES)	pIC50 (Table 1)	pIC50 (Table 1a)
O=C(NCc1cccc(F)c1)c1nc2n(c(=O)c1O)CCOC21CCCC1 [Example 26, N-[(3-fluorophenyl)methyl]-6′,7′-dihydro-3 ′-hydroxy-4′-oxo-spiro[cyclopentane-1,9′(4′H)-pyrimido[2,1-c][1,4]oxazine]-2′-carboxamide]	7.00 to 8.00	–
CN1CCn2c(nc(C(=O)NCc3ccc(F)cc3-n3cncn3)c(O)c2=O)C12CCC2 [Example 99, Spiro[cyclobutane-1,9′(6′H)-[4H]pyrazino[1,2-a]pyrimidine]-2′-carboxamide, N-[[4-fluoro-2-(1H-1,2,4-triazol-1-yl)phenyl]methyl]-7′,8′-dihydro-3′-hydroxy-8′-methyl-4′-oxo-]	–	8.00 to 9.00
O=C(NCc1ccc(F)cc1-n1cncn1)c1nc2n(c(=O)c1O)CCOC21CCOCC1 [Example 41]	8.00 to 9.00	–
CN1CCn2c(nc(C(=O)NCc3ccc(F)cc3)c(O)c2=O)C12CCCCC2 [Example 95, Spiro[cyclohexane-1,9′(6′H)-[4H]pyrazino[1,2-a]pyrimidine]-2′-carboxamide, N-[(4-fluorophenyl)methyl]-7′,8′-dihydro-3′-hydroxy-8′-methyl-4′-oxo-]	–	8.00 to 9.00
O=C(NCc1cc(F)ccc1-n1cncn1)c1nc2n(c(=O)c1O)CCOC21CCCC1 [Example 29, N-[[5-fluoro-2-(1H-1,2,4-triazol-1-yl)phenyl]methyl]-6′,7′-dihydro-3′-hydroxy-4′-oxo-spiro[cyclopentane-1,9′(4′H)-pyrimido[2,1-c][1,4]oxazine]-2′-carboxamide]	8.00 to 9.00	–
O=C(NCc1ccc(F)cc1N1CCCCS1(=O)=O)c1nc2n(c(=O)c1O)CCOC21CCOCC1 [Example 42, N-[[4-fluoro-2-(tetrahydro-1,1-dioxido-2H-1,2-thiazin-2-yl)phenyl]methyl]-2,3,5,6,6′,7′-hexahydro-3′-hydroxy-4′-oxo-spiro[4H-pyran-4,9′(4′H)-pyrimido[2,1-c][1,4]oxazine]-2′-carboxamide]	8.00 to 9.00	–
Cc1ncnn1-c1cc(F)ccc1CNC(=O)c1nc2n(c(=O)c1O)CCN(C)C21CCCC1 [Example 94, Spiro[cyclopentane-1,9′(6′H)-[4H]pyrazino[1,2-a]pyrimidine]-2′-carboxamide, N-[[4-fluoro-2-(5-methyl-1H-1,2,4-triazol-1-yl)phenyl]methyl]-7′,8′-dihydro-3′-hydroxy-8′-methyl-4′-oxo-]	–	7.00 to 8.00
Cc1ccc(CNC(=O)c2nc3n(c(=O)c2O)CCOC32CCCC2)cc1C [Example 22, N-[(3,4-dimethylphenyl)methyl]-6′,7′-dihydro-3′-hydroxy-4′-oxo-spiro[cyclopentane-1,9′(4′H)-pyrimido[2,1-c][1,4]oxazine]-2′-carboxamide]	7.00 to 8.00	–
O=C(NCc1ccc(F)cc1)c1nc2n(c(=O)c1O)CCOC21COC1 [Example 109, Spiro[oxetane-3,9′(4′H)-pyrimido[2,1-c][1,4]oxazine]-2′-carboxamide, N-[(4-fluorophenyl)methyl]-6′,7′-dihydro-3′-hydroxy-4′-oxo-]	–	8.00 to 9.00
O=C(NCc1ccc(F)cc1-n1cncn1)c1nc2n(c(=O)c1O)CCNC21CCC1 [Example 131]	–	8.00 to 9.00
O=C(NCc1ccc(Cl)c(Cl)c1)c1nc2n(c(=O)c1O)CCOC21CCCC1 [Example 21, N-[(3,4-dichlorophenyl)methyl]-6′,7′-dihydro-3′-hydroxy-4′-oxo-spiro[cyclopentane-1,9′(4′H)-pyrimido[2,1-c][1,4]oxazine]-2′-carboxamide]	8.00 to 9.00	–
O=C(NCc1ccccc1-n1cncn1)c1nc2n(c(=O)c1O)CCCC21CCCC1 [Example 3, N-[[2-(1H-1,2,4-triazol-1-yl)phenyl]methyl]-7′,8′-dihydro-3′-hydroxy-4′-oxo-spiro[cyclopentane-1,9′(6′H)-[4H]pyrido[1,2-α]pyrimidine]-2′-carboxamide]	8.00 to 9.00	–
O=C(NCc1ccc(Cl)cc1)c1nc2n(c(=O)c1O)CCOC21CCCC1 [Example 20, N-[(4-chlorophenyl)methyl]-6′,7′-dihydro-3′-hydroxy-4′-oxo-spiro[cyclopentane-1,9′(4′H)-pyrimido[2,1-c][1,4]oxazine]-2′-carboxamide]	8.00 to 9.00	–
CS(=O)(=O)c1cc(F)ccc1CNC(=O)c1nc2n(c(=O)c1O)CCOC21CCOCC1 [Example 44, N-[[4-fluoro-2-(methylsulfonyl)phenyl]methyl]-2,3,5,6,6′,7′-hexahydro-3′-hydroxy-4′-oxo-spiro[4H-pyran-4,9′(4′H)-pyrimido[2,1-c][1,4]oxazine]-2′-carboxamide]	8.00 to 9.00	–
O=C(NCc1ccc(F)cc1-n1cncn1)c1nc2n(c(=O)c1O)CCCOC21CCC1 [Example 60, N-[[4-fluoro-2-(1 H-1,2,4-triazol-1-yl)phenyl]methyl]-7′,8′-dihydro-3′-hydroxy-4′-oxo-spiro[cyclobutane-1,10′(4′H)-[6H]pyrimido[2,1-c][1,4]oxazepine]-2′-carboxamide]	8.00 to 9.00	–
Cc1cc(CNC(=O)c2nc3n(c(=O)c2O)CCOC32CCOCC2)ccc1F [Example 45, N-[(4-fluoro-3-methylphenyl)methyl]-2,3,5,6,6′,7′-hexahydro-3′-hydroxy-4′-oxo-spiro[4H-pyran-4,9′(4′H)-pyrimido[2,1-c][1,4]oxazine]-2′-carboxamide]	8.00 to 9.00	–
O=C(NCc1ccccc1F)c1nc2n(c(=O)c1O)CCCC21CCC1 [Example 68, N-[(2-fluorophenyl)methyl]-7′,8′-dihydro-3′-hydroxy-4′-oxo-spiro[cyclobutane-1,9′(6′H)-[4H]pyrido[1,2-α]pyrimidine]-2′-carboxamide]	7.00 to 8.00	–
O=C(NCc1cc(F)ccc1-n1cncn1)c1nc2n(c(=O)c1O)CCCC21CCC1 [Example 77, N-[[5-fluoro-2-(1H-1,2,4-triazol-1-yl)phenyl]methyl]-7′,8′-dihydro-3′-hydroxy-4′-oxo-spiro[cyclobutane-1,9′(6′H)-[4H]pyrido[1,2-α]pyrimidine]-2′-carboxamide]	8.00 to 9.00	–
CN(C)S(=O)(=O)c1cc(F)ccc1CNC(=O)c1nc2n(c(=O)c1O)CCCC21CCC1 [Example 82, N-[[2-[(dimethylamino)sulfonyl]-4-fluorophenyl]methyl]-7′,8′-dihydro-3′-hydroxy-4′-oxo-spiro[cyclobutane-1,9′(6′H)-[4H]pyrido[1,2-α]pyrimidine]-2′-carboxamide]	8.00 to 9.00	–
Cc1ccc(CNC(=O)c2nc3n(c(=O)c2O)CCOC32CCOCC2)cc1C [Example 48, N-[(3,4-dimethylphenyl)methyl]-2,3,5,6,6′,7′-hexahydro-3′-hydroxy-4′-oxo-spiro[4H-pyran-4,9′(4′H)-pyrimido[2,1-c][1,4]oxazine]-2′-carboxamide]	8.00 to 9.00	–
O=C(NCc1ccccc1N1CCC1=O)c1nc2n(c(=O)c1O)CCOC21CCC1 [Example 125, Spiro[cyclobutane-1,9′(4′H)-pyrimido[2,1-c][1,4]oxazine]-2′-carboxamide, 6′,7′-dihydro-3′-hydroxy-4′-oxo-N-[[2-(2-oxo-1-azetidinyl)phenyl]methyl]-]	–	8.00 to 9.00
O=C(NCc1ccc(F)cc1)c1nc2n(c(=O)c1O)CCOC21CCCC1 [Example 15, N-[(4-fluorophenyl)methyl]-6′,7′-dihydro-3′-hydroxy-4′-oxo-spiro[cyclopentane-1,9′(4′H)-pyrimido[2,1-c][1,4]oxazine]-2′-carboxamide]	8.00 to 9.00	–
